Experimental data taken from patent publication US20130303509A1, “NAMPT INHIBITORS” (AbbVie Inc., priority 2012, published 2013).

These molecules were tested on PC3 cells (assay: NAMPT Cell Proliferation Assay). Conditions: Homo sapiens, PC-3, 120 h, 5 days incubation, cell viability by Cell Titer Glo.
Format: cell-based
How it was run: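 Five-day CellTiter-Glo viability readout in PC3 cells grown in RPMI/10% heat-inactivated FBS. Compounds added after overnight attachment as a 10-fold dilution series, […]. Percent inhibition fitted to sigmoidal dose-response to derive IC50.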
Molecule `O=C(Nc1ccc(OC2CN(C(=O)c3ccoc3)C2)cc1)C1CN(c2ccnnc2)C1` [Example 209, N-(4-{[1-(furan-3-ylcarbonyl)azetidin-3-yl]oxy}phenyl)-1-(pyridazin-4-yl)azetidine-3-carboxamide] has an IC50 of 81.6 nM.
`CCCCC(=O)N1CC(Oc2ccc(NC(=O)C3CN(c4ccnnc4)C3)cc2)C1` [Example 210, N-{4-[(1-pentanoylazetidin-3-yl)oxy]phenyl}-1-(pyridazin-4-yl)azetidine-3-carboxamide] showed an IC50 of 62.7 nM.
`O=C(Nc1ccc(OC2CCN(C(=O)c3ccccc3Cl)CC2)cc1)C1CN(c2cccnn2)C1` [Example 211, N-(4-{[1-(2-chlorobenzoyl)piperidin-4-yl]oxy}phenyl)-1-(pyridazin-3-yl)azetidine-3-carboxamide] showed an IC50 of 5.94 nM.
For `CC[C@H](C)C(=O)N1CCC(Oc2ccc(NC(=O)C3CN(c4cccnn4)C3)cc2)CC1` [Example 212, N-[4-({1-[(2S)-2-methylbutanoyl]piperidin-4-yl}oxy)phenyl]-1-(pyridazin-3-yl)azetidine-3-carboxamide], the IC50 was 5.79 nM.
With `O=C(Nc1ccc(OC2CCN(C(=O)c3nccs3)CC2)cc1)C1CN(c2cccnn2)C1` [Example 213, 1-(pyridazin-3-yl)-N-(4-{[1-(1,3-thiazol-2-ylcarbonyl)piperidin-4-yl]oxy}phenyl)azetidine-3-carboxamide] the IC50 was 6.88 nM.
Molecule `O=C(Nc1ccc(OC2CCN(C(=O)C3CCOCC3)CC2)cc1)C1CN(c2cccnn2)C1` [Example 214, 1-(pyridazin-3-yl)-N-(4-{[1-(tetrahydro-2H-pyran-4-ylcarbonyl)piperidin-4-yl]oxy}phenyl)azetidine-3-carboxamide] has an IC50 of 9.09 nM.
Work on `O=C(Nc1ccc(OC2CCN(C(=O)C(F)(F)c3ccccc3)CC2)cc1)C1CN(c2cccnn2)C1` [Example 215, N-[4-({1-[difluoro(phenyl)acetyl]piperidin-4-yl}oxy)phenyl]-1-(pyridazin-3-yl)azetidine-3-carboxamide] yielded an IC50 of 6.95 nM.
Work on `O=C(Nc1ccc(OC2CCN(C(=O)C3CCC(F)(F)CC3)CC2)cc1)C1CN(c2cccnn2)C1` [Example 216, N-[4-({1-[(4,4-difluorocyclohexyl)carbonyl]piperidin-4-yl}oxy)phenyl]-1-(pyridazin-3-yl)azetidine-3-carboxamide] yielded an IC50 of 5.99 nM.
In the case of `CC(C)(C(=O)N1CCC(Oc2ccc(NC(=O)C3CN(c4cccnn4)C3)cc2)CC1)c1ccccc1` [Example 217, N-(4-{[1-(2-methyl-2-phenylpropanoyl)piperidin-4-yl]oxy}phenyl)-1-(pyridazin-3-yl)azetidine-3-carboxamide], the IC50 is reported as 2.55 nM.
`O=C(Nc1ccc(OC2CCN(C(=O)c3cscn3)CC2)cc1)C1CN(c2cccnn2)C1` [Example 218, 1-(pyridazin-3-yl)-N-(4-{[1-(1,3-thiazol-4-ylcarbonyl)piperidin-4-yl]oxy}phenyl)azetidine-3-carboxamide] gave an IC50 of 8.86 nM.
With `Cc1ccc(C(=O)N2CCC(Oc3ccc(NC(=O)C4CN(c5cccnn5)C4)cc3)CC2)s1` [Example 219, N-[4-({1-[(5-methylthiophen-2-yl)carbonyl]piperidin-4-yl}oxy)phenyl]-1-(pyridazin-3-yl)azetidine-3-carboxamide] the IC50 was 8.86 nM.
`O=C(Nc1ccc(OC2CCN(C(=O)Cc3ccc(C(F)(F)F)cc3)CC2)cc1)C1CN(c2cccnn2)C1` [Example 220, 1-(pyridazin-3-yl)-N-{4-[(1-{[4-(trifluoromethyl)phenyl]acetyl}piperidin-4-yl)oxy]phenyl}azetidine-3-carboxamide] gave an IC50 of 13.2 nM.
Molecule `O=C(Nc1ccc(OC2CCN(C(=O)C3CCCO3)CC2)cc1)C1CN(c2cccnn2)C1` (stereo not shown) [Example 221, 1-(pyridazin-3-yl)-N-(4-{[1-(tetrahydrofuran-2-ylcarbonyl)piperidin-4-yl]oxy}phenyl)azetidine-3-carboxamide] has an IC50 of 8.99 nM.
`O=C(Nc1ccc(OC2CCN(C(=O)c3cccc(C(F)(F)F)c3)CC2)cc1)C1CN(c2cccnn2)C1` [Example 222, 1-(pyridazin-3-yl)-N-[4-({1-[3-(trifluoromethyl)benzoyl]piperidin-4-yl}oxy)phenyl]azetidine-3-carboxamide] showed an IC50 of 15.5 nM.
`O=C(Nc1ccc(OC2CCN(C(=O)c3ccsc3)CC2)cc1)C1CN(c2cccnn2)C1` [Example 223, 1-(pyridazin-3-yl)-N-(4-{[1-(thiophen-3-ylcarbonyl)piperidin-4-yl]oxy}phenyl)azetidine-3-carboxamide] was tested, and the IC50 was 5.5 nM.
Molecule `O=C(Nc1ccc(OC2CCN(C(=O)c3cccc(OC(F)(F)F)c3)CC2)cc1)C1CN(c2cccnn2)C1` [Example 224, 1-(pyridazin-3-yl)-N-[4-({1-[3-(trifluoromethoxy)benzoyl]piperidin-4-yl}oxy)phenyl]azetidine-3-carboxamide] has an IC50 of 7.52 nM.
`CC(C)CC(=O)N1CCC(Oc2ccc(NC(=O)C3CN(c4cccnn4)C3)cc2)CC1` [Example 225, N-(4-{[1-(3-methylbutanoyl)piperidin-4-yl]oxy}phenyl)-1-(pyridazin-3-yl)azetidine-3-carboxamide] showed an IC50 of 8.76 nM.
Molecule `O=C(Nc1ccc(OC2CCN(C(=O)C3CCOC3)CC2)cc1)C1CN(c2cccnn2)C1` (stereo not shown) [Example 226, 1-(pyridazin-3-yl)-N-(4-{[1-(tetrahydrofuran-3-ylcarbonyl)piperidin-4-yl]oxy}phenyl)azetidine-3-carboxamide] has an IC50 of 8.89 nM.
For `O=C(Nc1ccc(OC2CCN(C(=O)Cc3cccc(F)c3)CC2)cc1)C1CN(c2cccnn2)C1` [Example 227, N-[4-({1-[(3-fluorophenyl)acetyl]piperidin-4-yl}oxy)phenyl]-1-(pyridazin-3-yl)azetidine-3-carboxamide], the IC50 was 4.53 nM.
`O=C(Nc1ccc(OC2CCN(C(=O)c3ccccc3F)CC2)cc1)C1CN(c2cccnn2)C1` [Example 228, N-(4-{[1-(2-fluorobenzoyl)piperidin-4-yl]oxy}phenyl)-1-(pyridazin-3-yl)azetidine-3-carboxamide] showed an IC50 of 5.97 nM.
Molecule `O=C(Nc1ccc(OC2CCN(C(=O)c3ccc(F)cc3F)CC2)cc1)C1CN(c2cccnn2)C1` [Example 229, N-(4-{[1-(2,4-difluorobenzoyl)piperidin-4-yl]oxy}phenyl)-1-(pyridazin-3-yl)azetidine-3-carboxamide] has an IC50 of 6.46 nM.
With `O=C(Nc1ccc(OC2CCN(C(=O)c3ccc(F)cc3)CC2)cc1)C1CN(c2cccnn2)C1` [Example 230, N-(4-{[1-(4-fluorobenzoyl)piperidin-4-yl]oxy}phenyl)-1-(pyridazin-3-yl)azetidine-3-carboxamide] the IC50 was 9.05 nM.
For `O=C(Nc1ccc(OC2CCN(C(=O)c3cccc(F)c3)CC2)cc1)C1CN(c2cccnn2)C1` [Example 231, N-(4-{[1-(3-fluorobenzoyl)piperidin-4-yl]oxy}phenyl)-1-(pyridazin-3-yl)azetidine-3-carboxamide], the IC50 was 8.75 nM.
In the case of `O=C(Nc1ccc(OC2CCN(C(=O)Cc3ccc(F)cc3)CC2)cc1)C1CN(c2cccnn2)C1` [Example 232, N-[4-({1-[(4-fluorophenyl)acetyl]piperidin-4-yl}oxy)phenyl]-1-(pyridazin-3-yl)azetidine-3-carboxamide], the IC50 is reported as 8.74 nM.
For `O=C(Nc1ccc(OC2CCN(C(=O)CC3CC3)CC2)cc1)C1CN(c2cccnn2)C1` [Example 233, N-(4-{[1-(cyclopropylacetyl)piperidin-4-yl]oxy}phenyl)-1-(pyridazin-3-yl)azetidine-3-carboxamide], the IC50 was 8.73 nM.
`O=C(Nc1ccc(OC2CCN(C(=O)c3ccc(F)c(F)c3)CC2)cc1)C1CN(c2cccnn2)C1` [Example 234, N-(4-{[1-(3,4-difluorobenzoyl)piperidin-4-yl]oxy}phenyl)-1-(pyridazin-3-yl)azetidine-3-carboxamide] was tested, and the IC50 was 10.5 nM.
In the case of `O=C(Nc1ccc(OC2CCN(C(=O)c3ccc(OC(F)(F)F)cc3)CC2)cc1)C1CN(c2cccnn2)C1` [Example 235, 1-(pyridazin-3-yl)-N-[4-({1-[4-(trifluoromethoxy)benzoyl]piperidin-4-yl}oxy)phenyl]azetidine-3-carboxamide], the IC50 is reported as 12.4 nM.
For `O=C(Nc1ccc(OC2CCN(C(=O)Cc3ccc(F)cc3F)CC2)cc1)C1CN(c2cccnn2)C1` [Example 236, N-[4-({1-[(2,4-difluorophenyl)acetyl]piperidin-4-yl}oxy)phenyl]-1-(pyridazin-3-yl)azetidine-3-carboxamide], the IC50 was 9.25 nM.
Molecule `O=C(Nc1ccc(OC2CCN(C(=O)c3ccc(C(F)(F)F)cc3)CC2)cc1)C1CN(c2cccnn2)C1` [Example 237, 1-(pyridazin-3-yl)-N-[4-({1-[4-(trifluoromethyl)benzoyl]piperidin-4-yl}oxy)phenyl]azetidine-3-carboxamide] has an IC50 of 10.3 nM.
Molecule `O=C(Nc1ccc(OC2CCN(C(=O)Cc3ccc(OC(F)(F)F)cc3)CC2)cc1)C1CN(c2cccnn2)C1` [Example 238, 1-(pyridazin-3-yl)-N-{4-[(1-{[4-(trifluoromethoxy)phenyl]acetyl}piperidin-4-yl)oxy]phenyl}azetidine-3-carboxamide] has an IC50 of 15.7 nM.
In the case of `O=C(Nc1ccc(OC2CCN(C(=O)Cc3cc(F)cc(F)c3)CC2)cc1)C1CN(c2cccnn2)C1` [Example 239, N-[4-({1-[(3,5-difluorophenyl)acetyl]piperidin-4-yl}oxy)phenyl]-1-(pyridazin-3-yl)azetidine-3-carboxamide], the IC50 is reported as 6.7 nM.
With `O=C(Nc1ccc(OC2CCN(C(=O)Cc3cccc(C(F)(F)F)c3)CC2)cc1)C1CN(c2cccnn2)C1` [Example 240, 1-(pyridazin-3-yl)-N-{4-[(1-{[3-(trifluoromethyl)phenyl]acetyl}piperidin-4-yl)oxy]phenyl}azetidine-3-carboxamide] the IC50 was 10.3 nM.
`CC(C)(C)C(=O)N1CCC(Oc2ccc(NC(=O)C3CN(c4cccnn4)C3)cc2)CC1` [Example 241, N-(4-{[1-(2,2-dimethylpropanoyl)piperidin-4-yl]oxy}phenyl)-1-(pyridazin-3-yl)azetidine-3-carboxamide] gave an IC50 of 7.73 nM.
`O=C(Nc1ccc(OC2CCN(C(=O)c3ccccn3)CC2)cc1)C1CN(c2cccnn2)C1` [Example 242, 1-(pyridazin-3-yl)-N-(4-{[1-(pyridin-2-ylcarbonyl)piperidin-4-yl]oxy}phenyl)azetidine-3-carboxamide] showed an IC50 of 9.06 nM.
